Data reported in patent US4416883A, “Penicillin derivatives” (Beecham Group Limited, priority 1980, dated 1983).

Key:
Format in all cases: cell-based
[1] = system: Staph. aureus Russell; experiment: MIC against Staph. aureus Russell; settings: Staphylococcus aureus, AGAR
Excerpt: (§1) | MIC values (μg/ml) of the compounds of Example 4b against | a number of organisms important in human infections

[2] = system: Ps aeruginosa 10662; experiment: MIC against Ps aeruginosa 10662
Excerpt: as §1

[3] = system: P. morganii; experiment: MIC against P. morganii; settings: Morganella morganii, AGAR
Excerpt: as §1

[4] = system: P. rettgeri; experiment: MIC against P. rettgeri; settings: Providencia rettgeri, AGAR
Excerpt: as §1

[5] = system: E. coli JT4; experiment: MIC against E. coli JT4; settings: Escherichia coli, AGAR
Excerpt: as §1

[6] = system: E. coli JT425; experiment: MIC against E. coli JT425; settings: Escherichia coli, AGAR
Excerpt: as §1

[7] = system: Klebsiella aerogenes A; experiment: MIC against Klebsiella aerogenes A
Excerpt: as §1

[8] = system: E. coli NCTC 10418; experiment: MIC against E. coli NCTC 10418; settings: Escherichia coli
Excerpt: as §1

[9] = system: Staph. aureus Oxford; experiment: MIC against Staph. aureus Oxford; settings: Staphylococcus aureus
Excerpt: as §1

[10] = system: S. faecalis I; experiment: MIC against S. faecalis I; settings: Enterococcus faecalis, AGAR
Excerpt: as §1

[11] = system: P. mirabilis C977; experiment: MIC against P. mirabilis C977; settings: Proteus mirabilis, AGAR
Excerpt: as §1

[12] = system: Serratia marcescens US32; experiment: MIC against Serratia marcescens US32; settings: AGAR
Excerpt: as §1

[13] = system: Enterobacter cloacae N1; experiment: MIC against Enterobacter cloacae N1; settings: AGAR
Excerpt: as §1

[14] = system: B. subtilis; experiment: MIC against B. subtilis; settings: Bacillus subtilis, AGAR
Excerpt: as §1

[15] = system: Ps aeruginosa Dalgleish; experiment: MIC against Ps aeruginosa Dalgleish; settings: AGAR; Ps aeruginosa Dalgleish 10^-2
Excerpt: as §1

[16] = system: β-Haemolytic Strep. CN10; experiment: MIC against β-Haemolytic Strep. CN10; settings: AGAR
Excerpt: as §1

[17] = system: P. mirabilis 889; experiment: MIC against P. mirabilis 889; settings: Proteus mirabilis, AGAR
Excerpt: as §1

CCN1CCN(C(=O)N[C@@H](C(=O)N[C@@H]2C(=O)N3[C@@H](C(=O)O)CS[C@H]23)c2ccccc2)C(=O)C1=O [Example 4b, Sodium 6β[D,2(4-ethyl-2,3-dioxopiperazine-1-carbonylamino)]phenylacetamidobisnorpenicillanate]
MIC [1]: > 100 µg/mL
MIC ([2]; AGAR, Ps aeruginosa 10662): 10 µg/mL
MIC ([2]; AGAR, Ps aeruginosa 10662 10^-2): 5 µg/mL
MIC ([2]; BROTH, Ps aeruginosa 10662): 10 µg/mL
MIC ([2]; BROTH, Ps aeruginosa 10662 10^-2): 5 µg/mL
MIC [3]: 0.2 µg/mL
MIC [4]: 0.5 µg/mL
MIC [5]: > 100 µg/mL
MIC [6]: 10 µg/mL
MIC ([7]; AGAR): 0.2 µg/mL
MIC ([7]; BROTH): > 10 µg/mL
MIC ([8]; NCTC10418, AGAR): 1 µg/mL
MIC ([8]; NCTC10418, BROTH): 0.5 µg/mL
MIC ([9]; AGAR): 1 µg/mL
MIC ([9]; BROTH): 0.5 µg/mL
MIC [10]: 50 µg/mL
MIC [11]: 0.1 µg/mL
MIC [12]: 0.5 µg/mL
MIC [13]: 0.5 µg/mL
MIC [14]: 5 µg/mL
MIC [15]: > 100 µg/mL
MIC [16]: 0.2 µg/mL
MIC [17]: > 100 µg/mL
